Literature values, collected in US20220354953A1, “PHOTODYNAMIC THERAPY COMPOSITIONS AND METHODS OF TREATMENT THEREIN” (Pinnacle Biologics, Inc., priority 2021, published 2022).

time stable when reconstituted with saline: 24 h
Substance: porfimer sodium
